Assay results from patent publication US20060165630A1, “Use of amide or ester of sugar and of fatty acid, for treating and/or preventing dry skin” (priority 2002, published 2006).

What was measured:
[1] = test system: human sebocytes immortalized in culture, derived from the SZ95 line; experiment: Quantity of lipids produced by sebocytes (Nile Red fluorescence); type: cell-based; conditions: 100 μM, 2 days of treatment, total lipids, SZ95 sebocytes at confluence
Description: The test compounds were evaluated on a model of human sebocytes immortalized in culture, derived from the SZ95 line described in Zouboulis, C. C. et al., Establishment and Characterization of an Immortalized Human Sebaceous Gland Cell Line, J. Invest. Dermatol., 113, 1011-1020 (1999).
The test consists of measuring the quantity of lipids produced by the sebocytes of the cell line (at confluence), with or without active agents present, diluted in DMSO, in such a way that the final amount of DMSO in the basal medium is 0.1%. After 2 days of treatment, the adhering cells are treated with Nile Red (1 μg/ml). The lipids content is then quantified by measuring the fluorescence of the stain (two excitation/emission pairs: 485-540 nm for neutral lipids and 540-620 nm for non-neutral lipids). The results are given for total lipids (combining both measurements).
The test is carried out in decaplicate (assayed products and control) in a 96-well plate and renewed 3 times.

[2] = Stability in solution, hydrolysis of the esters by HPLC; type: physicochemical; conditions: hydrolysis of glucopyranose linoleate; 0.1 wt. % in ethanol/isopropanol/water (64/16/20 by volume), 45° C., 2 months
Description: The stability of the compounds according to the invention was evaluated (measurement of hydrolysis of the esters).
Solutions were prepared at 0.1 wt. % of the compounds in ethanol/isopropanol/water mixture (64/16/20 by volume). These solutions were left in a thermostat at 45° C., for 2 months.
Then the percentage hydrolysis of glucopyranose linoleate was determined by HPLC.

SZ 95 sebocytes = experiment: Cytotoxicity on sebocytes, production of LDH in the basal medium; type: cell-based; conditions: for Variation, LDH/control: 100 μM
Description: The tolerance of the glucose ester at 6 of linoleic acid was determined by measuring the cytotoxicity of the product on SZ 95 sebocytes, with linoleic acid alone as control.
The test conditions are identical to those examined in example 1. Cytotoxicity is measured by the production of LDH in the basal medium, according to the method described in Thomas J P et al.; Lethal damage to endothelial cells by oxidized low density lipoprotein: role of selenoperoxidases in cytoprotection against lipid hydroperoxide and iron mediated reactions. Journal of lipid research 34: 479-490. 1993.

[3] = Peroxidizability in the air, proportion of intact molecules by HPLC; type: physicochemical; conditions: storage for two months, at room temperature (about 20 to 25° C.), HPLC with UV detection (210 nm)
Description: The purpose of this study is to evaluate the peroxidizability of various molecules or mixtures of molecules by carrying out various tests. These tests consist of measuring the proportion of molecules still intact after storage for two months, in air, at room temperature (about 20 to 25° C.). The loss of the starting product is monitored by HPLC with UV detection (210 nm).

SMILES	Variation, lipid/CONTROL [1]	% hydrolysis [2] [%]	intact molecules [3]	also measured
CCCCCC=CCC=CCCCCCCCC(=O)NC1C(O)OC(CO)C(O)C1O (stereo not shown)	+40%	–	–	–
CCCCCC=CCC=CCCCCCCCC(=O)O[C@H]1[C@H](O)[C@@H](CO)OC(O)[C@@H]1O (stereo partly drawn) [3-O-octadeca-9,12-dienoyl-D-glucopyranose]	–	30	–	–
CCCCCC=CCC=CCCCCCCCC(=O)OC[C@H]1OC(O)[C@H](O)[C@@H](O)[C@@H]1O (stereo partly drawn) [6-O-octadeca-9,12-dienoyl-D-glucopyranose]	–	7	30%	Variation, LDH/control (SZ 95 sebocytes; SZ 95 sebocytes, LDH in the basal medium): Not significant; cytotoxicity with respect to sebocytes (in words) (SZ 95 sebocytes; SZ 95 sebocytes): No cytotoxicity was found
C[C@]12CC[C@H](O)CC1=CC[C@@H]1[C@@H]2CC[C@]2(C)C(=O)CC[C@@H]12 [DHEA, dehydroepiandrosterone, reference compound]	+80%	–	–	–
CCCCCC=CCC=CCCCCCCCC(=O)O [Linoleic acid, octadeca-9,12-dienoic acid, reference compound]	–	–	no longer contain intact molecules	Variation, LDH/control (SZ 95 sebocytes; human): +20%
CCCCC/C=C\C/C=C\CCCCCCCC(=O)OC [methyl linoleate]	–	–	no longer contain intact molecules	–
